From patent publication US20200164005A1, “PHARMACEUTICAL COMPOSITIONS OF A BILE ACID DERIVATIVE AND MICROBIOME AND USES THEREOF” (Intercept Pharmaceuticals, Inc., priority 2017, published 2020)

Columns and labels:
[1] = test system: small intestinal microbiota; assay: 16S tagged sequencing of small intestinal and fecal microbiota of OCA-treated mice; format: in vivo; details: 10 mg/kg OCA, 14 days
Excerpt: FIG. 60: The effect of OCA on the composition of the proximal and distal small intestinal, as well as the feces, microbiota of mice based on 16S tagged sequencing.
FIG. 63: Box and whisker plots of differentially abundant taxa in the distal small intestine of mice in response to treatment with OCA relative to two controls. S24-7, Clostridiaceae, and Turibacter are differentially abundant between the MC and OCA groups (fdr=0.1759, 0.04503, and 0.2332, respectively); Sutterella and Akkermansia are differentially abundant between the control and OCA groups (fdr=0.3199 for both).
The bacterial species that increase most prominently upon OCA treatment have been reported to represent a significant proportion of the small intestinal microbiota, but are very minor constituents in stool. For example, Streptococci represent as much as 20% of the human small intestinal microbiota by 16S tagged sequencing (Dlugosz et al., Sci Rep-Uk, 5 (2015)); El Aidy et al., Curr Opin Biotechnol., 32, 14-20 (2015)). […] To determine whether OCA treatment can alter the gut microbiota composition specifically in the small intestine, mice were treated with OCA for 14 days, the microbiota composition in the proximal and distal small intestine, as well as the stool, and quantified bile acids were characterized. […] Also notable was the quantitative difference in the absolute levels of luminal bile acids in the small intestine (approximately 100-fold greater than in the feces, FIGS. 59A-59C); this is consistent with enterohepatic reabsorption of over 95% of bile acids in the terminal ileum of the small intestine (de Aguiar Vallim et al., Cell Metabolism, 17, 657-669 (2013)).

[2] = test system: MetaCyc pathways of the gut microbiome; assay: MetaCyc pathway differential abundance analysis of stool metagenome; format: in vivo, human
Excerpt: HUMAnN2 (Abubucker et al., PLoS Comput. Biol. 8, e1002358 (2012)) was used to calculate gene and pathway abundance from metagenomic sequencing data. Uniref50 (UniProt® Consortium, Nucleic Acids Res. 43, D204 (2015)) was used for gene family definition. MetaCyc (Caspi et al., Nucleic Acids Res. 42, D459 (2014)) and KEGG (Kanehisa and Goto, Nucleic Acids Res. 28, 27 (2000); Kanehisa et al., Nucleic Acids Res. 44, D457 (2016)) were used for pathway analysis. • Gene family identification: Initially, 989251 gene families were identified from the dataset by HUMAnN2. Quantile normalization was implemented. For each sample, the RPK values were added up till 90% percentile of all genes (normalization factor, nf). RPK value of each gene in each sample was then divided by the nf of the sample, and multiplied with the mean of nf of all samples. 683270 uncharacterized genes were removed. Genes undetected in over 90% of samples (101994) were removed. 203987 genes were kept. Due to the large number of genes identified, 25% of the most varying genes were selected for further analysis. The most varying genes were defined by the coefficient variation (cv=sd/mean) of log 2 transformed value. • MetaCyc pathway identification: HUMAnN2 identified 567 MetaCyc pathways from the dataset. Quantile normalization was then performed. For each sample, the abundance values were added up till 90% percentile of all pathways (normalization factor, nf). Each pathway abundance in each sample was divided by the nf of the sample, and then multiplied with the mean of nf for all samples. The low abundance pathways (52), which were not detected on over 90% of all samples, were removed. 515 high quality MetaCyc pathways were kept for further analysis. • KEGG pathway identification: HUMAnN2 identified 160 KEGG pathways from the dataset. Quantile normalization was applied, and low abundance pathways were removed. 66 high quality KEGG pathways were kept for further analysis.
gene abundance˜aov(day*OCAdose+error(subject ID)) • Pathway differential abundance analysis: For each of the identified pathways, repeated measure ANOVA was also performed to study the time effect and OCA dose effect on pathway abundance change.
pathway abundance˜aov(day*OCAdose+error(subject ID)) • FGF19 analysis: The GEE model was applied in order to study the relationship of FGF19 change with the microbiome, gene family, and the pathway abundance change over time. The R function geeglm from R package geepack was used for gee modeling. Both FGF19 level and species/gene/pathway relative abundance were log 2 transformed before applying GEE model. […]

For `CC[C@H]1[C@@H](O)[C@@H]2[C@H](CC[C@]3(C)[C@@H]([C@H](C)CCC(=O)O)CC[C@@H]23)[C@@]2(C)CC[C@@H](O)C[C@@H]12` [OCA, 3α,7α-dihydroxy-6α-ethyl-5β-cholan-24-oic acid], the “Clostriciaceae family of Firmicutes in proximal and distal small intestine” value [1] was “increased abundance”, the “Clostriciaceae family of Firmicutes in the feces” value [1] was “not in the feces” and the “overall composition of the small intestinal microbiota” value ([1]; versus water and methylcellulose) was “different from both control groups”. For the same compound, the “pathways associated with nucleotide and amino acid biosynthesis” value ([2]; OCA treatment) was “enriched”, the “number of MetaCyc pathways differentially abundant over time” value ([2]; out of 515, FDR<0.05 for time effect) was 41 and the “number of MetaCyc pathways with significant time effects” value ([2]; repeated measure ANOVA, FDR<0.01, Example 7) was 135. The “OCA dose effect on MetaCyc pathway abundance” value ([2]; repeated measure ANOVA, FDR<0.05) was “No OCA dose effect or OCA dose×day interaction was observed”.
